Reference: US20230130621A1, “APPLICATION OF AGENT IN PREPARATION OF MEDICINE FOR TREATING/INHIBITING PSORIASIS” (priority 2021, published 2023)

Legend:
endothelial cells = experiment: dsDNA in exosomes released by endothelial cells stimulated by cytokines; type: cell-based; conditions: cytokine stimulation; FIG. 17, 18
Text: The dsDNA in exosomes released by endothelial cells stimulated by cytokines TNFα and IL17 was detected.

mouse = experiment: IL-1b injection into ears of the mouse; type: in vivo; conditions: injected into ears of the mouse; FIG. 26, 27
Text: dsDNA-AIM2 finally released the cytokine IL-1b to act on the body.

| Substance | dsDNA content in exosomes released by endothelial cells (endothelial cells) | psoriasis-like response in a mouse (skin phenotype, spleen, pathology) (mouse) |
| --- | --- | --- |
| IL17: cytokine IL17, clinically relevant cytokine for psoriasis | significantly stimulated the dsDNA content in exosomes released by endothelial cells | – |
| IL-1b: cytokine interleukin 1b | – | cause psoriasis-like skin phenotype, spleen enlargement and pathological changes |
| TNFα | significantly stimulated the dsDNA content in exosomes released by endothelial cells | – |
